Reference: patent US20100330029A1, “Cancer Treatments with Radiation and Immunocytokines” (Merck Patent GmbH, priority 2008, published 2010)

What was measured:
[1] = test system: Lewis lung carcinoma (LLC); test: tumor growth assay, Lewis lung carcinoma model; type: in vivo, mice; settings: for Complete Response Rate: Sel 5 mg/kg d7, 8, 9, Ch/Rx = cisplatin 4 mg/kg d0 plus 3.6 Gy/d d0-4; for tumor growth / complete regressions: Experiments LLC-1, LLC-2, LLC-4
Experimental: LL/2 (LLC) cells, a murine Lewis lung carcinoma cell line, were maintained in DMEM, supplemented with 10% heat-inactivated fetal bovine serum, L-glutamine, penicillin/streptomycin (Life Technologies, Inc.) at 37° C. and 7% CO2. LLC cells were implanted in female C57BL/6 mice.
For the tumor growth assay, cells growing exponentially in culture were injected as a single cell suspension in 100 μl of PBS intramuscularly into the upper legs of the mice. In experiments using a dual tumor model, cells were also implanted in the flanks of the mice. […] In Experiment LLC-7, tumors were implanted in the flank until established. Mice were treated on days 0 to 9, then, on day 12, tumors were excised using survival surgery. Thereafter, animal survival was monitored. In Experiment LLC-14, tumors were implanted subcutaneously in the flank until established. Mice were treated on days 0 to 6 and day 17, and tumor size was measured twice weekly for the duration of the study.
Tumors were measured with calipers in three dimensions for the duration of the experiment. Tumor volumes were calculated using the equation:
Volume=4/3π(L/2×W/2×H/2) • where L=length, W=width and H=height of the tumor
For local irradiation, mice were anesthetized by intraperitoneal injection of a solution of 2% tribromoethanol/3% xylazine. The amount injected was 0.02 ml/gram of the recipient's weight. Mice were restrained so that only their tumor-bearing leg was exposed to radiation, while the reminder of the mouse was shielded. Tumors were irradiated with ^137Cs gamma radiation at a dose rate of 1 Gy/min using a Gammacell® 40 Exactor (Nordion, Ottawa, ON).
Data from the subcutaneous tumor growth assay are presented in graphic form depicting average and standard deviations (sd) of tumor volumes or weights during and after dosing. Animal weight changes were determined by subtracting the animal weight at each time point from the initial body weight, on day 0, then dividing by the initial body weight and multiplying by 100. Therefore a value of 0 indicates no weight change.
Student's 2-tailed t test or Mann-Whitney Rank Sum test, as appropriate, was performed on the individual tumor volumes or animal weights, to determine significant differences between treatment groups.

[2] = test system: immune markers in LLC tumors; test: immune gene expression profiling of LLC tumors; type: in vivo, mice; settings: for CD3 gene expression increase / CD8 gene expression increase / CISH gene expression increase / CXCL9 gene expression increase / IFNg gene expression increase: LLC-6; for CD3 gene expression increase: EMD521873+chemoradiation vs EMD521873 or chemoradiation alone; for CD8 gene expression increase / CISH gene expression increase / CXCL9 gene expression increase / IFNg gene expression increase: EMD521873+chemoradiation vs either alone
Experimental: Gene profiling of tumors was analyzed using excised tumor tissues placed in RNAlater® RNA stabilizing reagent upon harvest. Total RNA was prepared with an RNeasy® kit (Qiagen) and cDNA was prepared with the Superscript® III kit for qPCR (Life Technologies, Inc.). qPCR reactions were performed on an ABI7500 instrument in a standardized fashion and relative changes in gene expression were analyzed using the ddCt method (efficiency factor 95%). Housekeeping genes used for comparison included ACTB, B2M and HPRT1.

[3] = Experiment LLC-6, chemoradiation followed by EMD521873
[4] = LLC-3, EMD521873 with cisplatin plus 1.2 Gy/d
[5] = triple combination of chemoradiation plus EMD521873
[6] = LLC-13, radiation in the 2 weeks prior to EMD521873
[7] = LLC-13, radiation in the first week followed by EMD521873

With “dI-NHS76γ2(h)(FN>AQ)-ala-IL2(D20T) [EMD521873]” the “Complete Response Rate” value ([1]; Exp LLC-3) was 0/6, the “Complete Response Rate” value ([1]; Exp LLC-4) was 1/8 and the “Complete Response Rate” value ([1]; Exp LLC-5) was 0/6. For the same substance, the “growth control of the irradiated lesion (leg tumor)” value [1, 3] was “good growth control”, the “growth control of the non-irradiated flank tumor” value [1, 3] was “did not surpass that of EMD521873 alone” and the tumor growth ([1]; EMD521873 5 mg/kg d7, 8, 9 with radiation 3.6 Gy/d d0-4) was “reduced tumor growth compared to any of the single treatments and to the other double treatments”. The complete regressions ([1]; EMD521873 with radiation) was 3/6, the tumor growth ([1]; cisplatin 4 mg/kg d0 added to radiation/EMD521873) was “further growth control” and the complete regressions ([1]; cisplatin added to radiation/EMD521873 (triple combination)) was 5/6. For the same substance, the complete responses ([1]; Experiments LLC-1, LLC-2, 3.6 Gy days 0-4 followed by EMD521873 5 mg/kg i.v. days 7, 8, 9) was 3/6, the complete responses ([1]; Experiments LLC-1, LLC-2, EMD521873 monotherapy 5 mg/kg i.v. days 7, 8, 9) was “No complete responses” and the tumor growth control ([1]; LLC-3, EMD521873 5 mg/kg d7, 8, 9 with cisplatin plus 0.4 Gy/d, vs EMD521873 alone or EMD521873 plus cisplatin) was “did not improve tumor growth control”. The complete responses [1, 4] was “no complete responses”, the tumor growth control [1, 4] was “improved growth control compared to either therapy alone” and the complete responses ([1]; LLC-3, cisplatin plus 3.6 Gy/d in combination with EMD521873) was 5/6. For the same substance, the T/C ([1]; LLC-3, day 19, cisplatin plus 3.6 Gy/d in combination with EMD521873) was 0.02, the T/C ([1]; LLC-3, day 19, single-arm groups: cisplatin plus 3.6 Gy/d without EMD521873, or EMD521873 alone) was 0.69 and the complete responses ([1]; LLC-3, single-arm groups: cisplatin plus 3.6 Gy/d without EMD521873, or EMD521873 alone) was 0/6. The “animals with complete response” value ([1]; LLC-8, LLC-9, combination with chemoradiation) was 4/6, the T/C ([1]; LLC-8, LLC-9, day 21, combination with chemoradiation (cisplatin 4 mg/kg d0 plus 3.6 Gy/d d0-4)) was 0.03 and the “response rate (CRs)” value ([1]; LLC-10, 1 mg/kg EMD521873 d7, 8, 9 plus chemoradiation) was 2/8. For the same substance, the “response rate (CRs)” value ([1]; LLC-10, 5 mg/kg EMD521873 d7, 8, 9 plus chemoradiation) was 3/8, the “response rate (CRs)” value ([1]; LLC-10, 15 mg/kg EMD521873 d7, 8, 9 plus chemoradiation) was 3/8 and the “tumor volume (FIG. 9)” value ([1]; LLC-10, 1, 5 and 15 mg/kg EMD521873 in combination with chemoradiation vs EMD521873 alone, chemoradiation alone, vehicle) was “similarly reduced tumor volume”. The tumor growth control ([1]; LLC-11, EMD521873 5 mg/kg d0, 1, 2 followed by radiation for 1 or 2 weeks, vs EMD521873 or radiation alone) was “an increase in tumor growth control”, the “tumor regressions and complete responses” value ([1]; LLC-11, EMD521873 followed by radiation for 1 or 2 weeks) was “neither tumor regressions nor complete responses were achieved” and the tumor regressions ([1]; LLC-12, EMD521873 5 mg/kg days 7, 8, 9 after a single week of radiation (3.6 Gy/d; d0, 2, 4)) was “a majority of tumor regressions”. The complete responses ([1]; LLC-12, EMD521873 after a single week of radiation) was “no complete responses”, the “tumor regressions and tumor growth control” value ([1]; LLC-12, EMD521873 during the 2nd week of a 2 week or 3 week course of radiation, vs EMD521873 or radiation alone) was “tumor regressions and improved tumor growth control” and the complete responses ([1]; LLC-13, cisplatin plus radiation for 1 week followed by EMD521873) was 4/10. The complete responses ([1]; LLC-13, cisplatin plus radiation for three weeks prior to EMD521873) was 0/10, the tumor growth control ([1]; LLC-13, cisplatin plus radiation for two weeks or three weeks prior to EMD521873) was “neither gave enhancement of tumor growth control compared to chemoradiation alone” and the complete responses ([1]; LLC-13, cisplatin plus radiation for two weeks prior to EMD521873) was 2/10. For the same substance, the tumor growth control ([1]; LLC-13, cisplatin plus radiation in the first week followed by EMD521873) was “enhancement of tumor growth control compared to either therapy alone”, the “tumor growth (FIG. 6)” value ([1]; LLC-14, chemoradiation (cisplatin, 3.6 Gy/d d0-4) combined with immunocytokine on d6 and d17, EMD521873 5 mg/kg i.v., NHS-muIL12 10 μg/animal s.c.) was “enhanced the efficacy of EMD521873” and the “tumor growth (FIG. 7)” value ([1]; immunocytokine administered with chemoradiation, compared to no treatment, chemoradiation alone, immunocytokine alone) was “a decrease in tumor growth”. For the same substance, the “complete regressions (FIG. 8)” value ([1]; treatment alone) was “no complete regressions occurred”, the “tumor growth (FIG. 8)” value ([1]; treatment alone) was “no decrease in tumor growth was seen” and the “complete regressions (FIG. 8)” value [1, 5] was 9/9. The “tumor volume (FIG. 8)” value [1, 5] was “a decrease in tumor volume”, the “gene expression profiling, panel of immune markers” value ([2]; Experiments LLC-1, LLC-2, radiation plus EMD521873 compared to either alone) was “increases in markers for T cell, T cell activation, lymphocyte trafficking, and Th1 response” and the “CD3 gene expression increase” value ([2]; flank tumor (non-irradiated)) was 8 fold. The “CD8 gene expression increase” value ([2]; flank tumor) was 3.5 fold, the “CISH gene expression increase” value ([2]; flank tumor) was 3.2 fold and the “CXCL9 gene expression increase” value ([2]; flank tumor) was 14 fold. The “IFNg gene expression increase” value ([2]; flank tumor) was 7 fold, the “CD3 gene expression increase” value ([2]; leg tumor (irradiated)) was > 20 fold and the “CD8 gene expression increase” value ([2]; leg tumor) was 10 fold. The “CISH gene expression increase” value ([2]; leg tumor) was 5.8 fold, the “CXCL9 gene expression increase” value ([2]; leg tumor) was 10.5 fold and the “IFNg gene expression increase” value ([2]; leg tumor) was 14 fold. For the same substance, the “12 immune expression markers (GZMB, PDCD1, NKG7, NKG2D, CD3G, ITGAL, CD122, CD8A, FASL, CTLA4, INOS, CD25) upregulated” value ([2]; LLC-8, LLC-9, EMD521873 plus chemoradiation relative to the maximal level achieved in the monotherapies) was 3 to 6 times, the “immune gene response profile” value ([2]; LLC-11, EMD521873 followed by radiation, compared to EMD521873 or either radiation regimen alone) was “not significantly affected” and the “immune response in the tumor (immune gene profiling)” value ([2]; LLC-12, EMD521873 during the 2nd week of a 3 week course of radiation vs 1 week or 2 week course) was “blunted”. For the same substance, the “CD3 fold-induction compared to untreated control” value [2, 6] was ~14 fold, the “CD8 fold-induction compared to untreated control” value [2, 6] was ~6 fold and the “CD25 fold-induction compared to untreated control” value [2, 6] was ~22 fold. The “IFNγ fold-induction compared to untreated control” value [2, 6] was ~10 fold, the “granzyme fold-induction compared to untreated control” value [2, 6] was ~2 fold and the “perforin fold-induction compared to untreated control” value [2, 6] was ~5 fold. For the same substance, the “immune response gene profile in the tumor” value ([2]; LLC-13, radiation in the 3 weeks prior to EMD521873) was “nearly complete abrogation of the immune response”, the “CD3 fold-induction compared to untreated control” value [2, 7] was ~50 fold and the “CD8 fold-induction compared to untreated control” value [2, 7] was ~19 fold. For the same substance, the “CD25 fold-induction compared to untreated control” value [2, 7] was ~45 fold, the “IFNγ fold-induction compared to untreated control” value [2, 7] was ~22 fold and the “granzyme fold-induction compared to untreated control” value [2, 7] was ~22 fold. For the same substance, the “perforin fold-induction compared to untreated control” value [2, 7] was ~8 fold.
